Results reported in article PMC8691691 (ACS Chemical Neuroscience, 2021).

Legend:
[1] = test system: allodynia; conditions: nerve ligation injury, streptozotocin-induced diabetic pain, complete Freund's adjuvant-induced inflammatory pain; cited from earlier work
[2] = test system: GlyT2; conditions: cited from earlier work
[3] = test system: GlyT1; conditions: neuronal cultures and brain preparations; cited from earlier work
[4] = target: T1, GlyT2 D635E mutant (Rattus norvegicus, UniProt P58295, D635E); experiment: [3H]glycine transport by GlyT2 mutant in COS7 cells; type: cell-based; conditions: read-out: IC50 (Table S1)
T1 construct: expressed in transfected cells; host or cells: COS7
T1 sequence (P58295 1-799 D635E): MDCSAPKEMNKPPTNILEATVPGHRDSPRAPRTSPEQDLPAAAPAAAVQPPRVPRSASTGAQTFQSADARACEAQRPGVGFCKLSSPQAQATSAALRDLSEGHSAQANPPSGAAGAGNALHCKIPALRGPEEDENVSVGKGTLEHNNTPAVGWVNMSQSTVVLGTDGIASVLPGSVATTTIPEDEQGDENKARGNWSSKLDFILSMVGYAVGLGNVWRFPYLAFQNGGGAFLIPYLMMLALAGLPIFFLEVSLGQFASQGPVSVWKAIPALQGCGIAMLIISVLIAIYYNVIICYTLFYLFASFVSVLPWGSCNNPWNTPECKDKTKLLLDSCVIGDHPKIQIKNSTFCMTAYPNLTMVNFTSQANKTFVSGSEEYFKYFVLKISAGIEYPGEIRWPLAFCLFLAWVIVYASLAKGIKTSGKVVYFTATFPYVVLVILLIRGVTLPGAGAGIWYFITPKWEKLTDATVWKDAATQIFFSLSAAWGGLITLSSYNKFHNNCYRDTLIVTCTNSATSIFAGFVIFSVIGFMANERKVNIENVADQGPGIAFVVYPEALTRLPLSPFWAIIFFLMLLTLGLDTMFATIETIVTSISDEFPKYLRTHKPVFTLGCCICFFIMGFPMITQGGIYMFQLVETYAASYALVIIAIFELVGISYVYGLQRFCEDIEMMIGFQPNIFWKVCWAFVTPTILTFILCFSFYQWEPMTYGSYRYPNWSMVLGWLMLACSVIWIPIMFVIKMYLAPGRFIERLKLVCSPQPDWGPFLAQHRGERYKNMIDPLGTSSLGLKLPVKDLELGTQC

[5] = target: T2, GlyT1 (Rattus norvegicus, UniProt P28572); experiment: [3H]glycine transport by recombinant GlyT1 expressed in COS7 cells; type: cell-based; conditions: 10 μM glycine
T2 construct: expressed in transfected cells; host or cells: COS7
T2 sequence (P28572 1-638): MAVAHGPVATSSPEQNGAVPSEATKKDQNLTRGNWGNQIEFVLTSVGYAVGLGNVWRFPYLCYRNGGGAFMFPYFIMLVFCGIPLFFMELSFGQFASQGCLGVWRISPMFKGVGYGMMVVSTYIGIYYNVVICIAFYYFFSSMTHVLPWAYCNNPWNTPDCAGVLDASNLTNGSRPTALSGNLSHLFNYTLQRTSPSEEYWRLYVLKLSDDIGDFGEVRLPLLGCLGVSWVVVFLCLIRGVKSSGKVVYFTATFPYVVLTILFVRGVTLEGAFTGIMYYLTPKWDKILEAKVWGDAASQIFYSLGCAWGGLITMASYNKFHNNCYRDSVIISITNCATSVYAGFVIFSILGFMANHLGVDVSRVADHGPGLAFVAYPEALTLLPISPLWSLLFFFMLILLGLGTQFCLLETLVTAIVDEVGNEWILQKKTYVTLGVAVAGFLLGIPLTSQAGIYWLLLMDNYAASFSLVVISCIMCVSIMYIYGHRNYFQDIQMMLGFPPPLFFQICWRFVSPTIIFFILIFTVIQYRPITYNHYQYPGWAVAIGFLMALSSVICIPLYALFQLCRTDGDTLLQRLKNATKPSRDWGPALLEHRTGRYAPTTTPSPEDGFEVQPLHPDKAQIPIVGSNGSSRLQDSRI
Method: Substitution mutants were generated with the QuikChange II Site-Directed Mutagenesis kit (Agilent Technologies, Santa Clara, CA, USA), using rGlyT2 or rGlyT1 subcloned in pCDNA3.[47] The complete coding region of all of the constructs was sequenced to verify that only the desired mutation had been introduced. […] COS7 cells were grown and transfected using Turbofect Transfection Reagent (Thermo Fisher Scientific, Waltham, MA, USA), following the manufacturer’s protocol (2 μL reagent/μg of DNA). Cells were incubated for 48 h at 37 °C until used.
At the end of the desired time (usually 10 min), reactions were washed and terminated by aspiration. […] A nonlinear curve fitting method was used to obtain IC50 values using Graphpad Prism software, version 6.0, Graphpad, San Diego, CA, USA.

[6] = test system: thermal, mechanical, and chemical stimulations; conditions: rat acute pain model; cited from earlier work

| Compound | effect on allodynia [1] | reversibility of GlyT2 inhibition [2] | concentrations at which GlyT1 is inhibited [3] | IC50 [4] | IC50, inhibition of glycine transport by GlyT1 [5] | effect on thermal, mechanical, and chemical stimulations [6] |
| --- | --- | --- | --- | --- | --- | --- |
| COc1cc(C(=O)NCC2(N(C)C)CCCC2)cc(OC)c1OCc1ccccc1 [ORG25543, N-[[1-(dimethylamino)cyclopentyl]methyl]-3,5-dimethoxy-4-(phenylmethoxy)benzamide] | reduces allodynia | irreversible GlyT2 inhibitor |  |  |  |  |
| N[C@@H](COC(c1cccc(F)c1)c1ccccc1OCc1ccccc1)C(=O)O (stereo partly drawn) [ALX1393] |  |  | 0.5 to 1 µM | 30 ± 4 nM | low μM range | antinociceptive effect |
